Molecules are shown by their SMILES. Calls of active or inactive are those of the source. The rule behind the calls is not given here.

In data set [1] the test system is Rattus norvegicus. Description: Toxicity in pilocarpine-induced status epilepticus Sprague-Dawley rat model assessed as loss of righting reflex at 100 mg/kg, ip administered 2 hrs prior to pilocarpine challenge measured within 10 mins and upto 4 hrs. In kind it is organism-based. The settings on record: in vivo.
For data set [2], the system named is Rattus norvegicus. Description: Toxicity in pilocarpine-induced status epilepticus Sprague-Dawley rat model assessed as sedation at 100 mg/kg, ip administered 2 hrs prior to pilocarpine challenge. In kind it is organism-based. The following applies: in vivo.
For data set [3], the system named is Rattus norvegicus. Description: Anticonvulsant activity in pilocarpine-induced status epilepticus Sprague-Dawley rat model assessed as motor seizure onset time at 100 mg/kg, ip administered 2 hrs prior to pilocarpine challenge (reference value: 6 mins). In kind it is functional.
The subject of data set [4] is Rattus norvegicus. Description: Anticonvulsant activity in pilocarpine-induced status epilepticus Sprague-Dawley rat model assessed as delay in motor seizure onset time at 100 mg/kg, ip administered 2 hrs prior to pilocarpine challenge. In kind it is functional, organism-based.
The subject of data set [5] is Rattus norvegicus. Briefly: Anticonvulsant activity in pilocarpine-induced status epilepticus Sprague-Dawley rat model at 100 mg/kg, ip administered 2 hrs prior to pilocarpine challenge. In kind it is functional, organism-based.
Data set [6] has as its system Rattus norvegicus. Briefly: Anticonvulsant activity in pilocarpine-induced status epilepticus Sprague-Dawley rat model assessed as recovered from seizure within 90 to 120 mins at 100 mg/kg, ip administered 2 hrs prior to pilocarpine challenge. In kind it is functional, organism-based.
The test system of data set [7] is Rattus norvegicus. Briefly: Anticonvulsant activity in pilocarpine-induced status epilepticus Sprague-Dawley rat model assessed as recovered from pre-stage of motor seizue within 30 mins at 100 mg/kg, ip administered 2 hrs prior to pilocarpine challenge. In kind it is functional, organism-based.
The subject of data set [8] is Rattus norvegicus. Briefly: Anticonvulsant activity in pilocarpine-induced status epilepticus Sprague-Dawley rat model assessed as decrease in progression of motor seizure at 100 mg/kg, ip administered 2 hrs prior to pilocarpine challenge. In kind it is functional, organism-based.
For data set [9], the system named is Rattus norvegicus. Briefly: Anticonvulsant activity in pilocarpine-induced status epilepticus Sprague-Dawley rat model assessed as survival rate at 100 mg/kg, ip administered 2 hrs prior to pilocarpine challenge (reference value: 53%). In kind it is functional.

For `O=C1OC2(C(=O)N(c3ccccc3)C(=O)N2c2ccccc2)c2ccccc21` (racemic), the Activity result with Rattus norvegicus [1] and in the data set with Rattus norvegicus [2] was “Toxic” throughout.

`CCCN1C(=O)N(c2ccccc2)C(=O)C12OC(=O)c1ccccc12` (racemic): the Activity result in the data set with Rattus norvegicus [1] and with Rattus norvegicus [2] was “Toxic” throughout.

With `O=C1OC2(C(=O)N(c3ccc([N+](=O)[O-])cc3)C(=O)N2c2ccccc2)c2ccccc21` (racemic), in the data set with Rattus norvegicus [3], the Time is reported as 104 min.

Turning to `O=C1OC2(C(=O)N(c3ccccc3)C(=O)N2C2CC2)c2ccccc21` (racemic), the Activity result with Rattus norvegicus [1] and in the data set with Rattus norvegicus [2] was “Toxic” in each case.

As for `CCCN1C(=O)N(c2ccc(CC)cc2)C(=O)C12OC(=O)c1ccccc12` (racemic), the result in the data set with Rattus norvegicus [4] was Active.

Turning to `CCCN1C(=O)N(c2ccc(Cl)cc2)C(=O)C12OC(=O)c1ccccc12` (racemic), the result in the data set on Rattus norvegicus [5] was Active.

As for `CCCN1C(=O)N(c2ccc([N+](=O)[O-])cc2)C(=O)C12OC(=O)c1ccccc12` (racemic), the result with Rattus norvegicus [5], with Rattus norvegicus [4] and with Rattus norvegicus [6] was Active.

As to `CCCN1C(=O)N(c2ccccc2CC)C(=O)C12OC(=O)c1ccccc12` (racemic), the result in the data set with Rattus norvegicus [5] was Active.

With `CCN1C(=O)N(c2ccc(OC)cc2OC)C(=O)C12OC(=O)c1ccccc12` (racemic), the outcome in the data set on Rattus norvegicus [7], in the data set with Rattus norvegicus [5], in the data set with Rattus norvegicus [4], in the data set with Rattus norvegicus [8] and in the data set with Rattus norvegicus [6] was Active.

Regarding `CCN1C(=O)N(c2ccc([N+](=O)[O-])cc2)C(=O)C12OC(=O)c1ccccc12` (racemic), the outcome in the data set on Rattus norvegicus [5] and in the data set on Rattus norvegicus [6] was Active.

In the case of `CCc1ccc(N2C(=O)N(C3CC3)C3(OC(=O)c4ccccc43)C2=O)cc1` (racemic), the result with Rattus norvegicus [4] was Active.

In the case of `CCc1cccc(CC)c1N1C(=O)N(CC)C2(OC(=O)c3ccccc32)C1=O` (racemic), the result in the data set on Rattus norvegicus [5] was Active.

Take `O=C1OC2(C(=O)N(c3ccc(Cl)cc3)C(=O)N2C2CC2)c2ccccc21` (racemic): the result in the data set with Rattus norvegicus [5] was Active.

Consider `O=C1OC2(C(=O)N(c3ccc(Cl)cc3)C(=O)N2c2ccccc2)c2ccccc21` (racemic), for which, in the data set with Rattus norvegicus [4], the result was Active.

Consider `O=C1OC2(C(=O)N(c3ccc([N+](=O)[O-])cc3)C(=O)N2C2CC2)c2ccccc21` (racemic), for which the result in the data set on Rattus norvegicus [5] and in the data set with Rattus norvegicus [6] was Active.

Take `O=C1NC(=O)C(c2ccccc2)(c2ccccc2)N1` [PHENYTOIN]: in the data set with Rattus norvegicus [9], the survival at 100 mg/kg stood at 67%. Moreover, the Time in the data set on Rattus norvegicus [3] was 12 min.

The values above are taken from ChEMBL document CHEMBL3797201, “Synthesis of N-1', N-3'-disubstituted spirohydantoins and their anticonvulsant activities in pilocarpine model of temporal lobe epilepsy” (Bioorg Med Chem Lett, 2016).
